Measured values taken from ChEMBL document CHEMBL4177763, “Development of Macrocyclic Peptidomimetics Containing Constrained α,α-Dialkylated Amino Acids with Potent and Selective Activity at Human Melanocortin Receptors” (J Med Chem, 2018).
Active and inactive are the calls of the source. No cut-off for these calls is given here. Bridge positions count the residues as written; N and C are the ends. Square brackets hold non-standard residues; d marks the D form. Peptide text beside a SMILES is read from it. d2Nal = N[C@H](Cc1ccc2ccccc2c1)C(=O)O; Ac6c = NC1(C(=O)O)CCCCC1; Ac5c = NC1(C(=O)O)CCCC1; Ac4c = NC1(C(=O)O)CCC1; Aib = CC(C)(N)C(=O)O

Columns and labels:
Melanocortin receptor 4 [1] = target: T1, Melanocortin receptor 4 (Homo sapiens, UniProt P32245); experiment: Displacement of [125I]-NDP-alpha-MSH from human MC4R expressed in HEK293 cells after 40 mins by gamma counting method; assay type: cell-based
T1 sequence (P32245 whole entry): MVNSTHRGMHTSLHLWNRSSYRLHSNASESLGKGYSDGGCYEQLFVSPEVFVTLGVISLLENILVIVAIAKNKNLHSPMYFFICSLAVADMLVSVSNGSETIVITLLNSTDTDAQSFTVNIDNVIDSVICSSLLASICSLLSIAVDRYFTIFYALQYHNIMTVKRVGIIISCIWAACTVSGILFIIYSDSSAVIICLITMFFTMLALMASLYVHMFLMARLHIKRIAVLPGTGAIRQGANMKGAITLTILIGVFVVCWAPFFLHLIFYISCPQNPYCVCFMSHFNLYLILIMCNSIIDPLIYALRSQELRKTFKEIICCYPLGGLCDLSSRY

[2] = target: T2, Melanocyte-stimulating hormone receptor (Homo sapiens, UniProt Q01726); experiment: Agonist activity at human MC1R expressed in HEK293 cells assessed as induction of intracellular cAMP accumulation measured after 3 mins; assay type: functional, cell-based
Target sequence in this assay (Q01726 whole entry): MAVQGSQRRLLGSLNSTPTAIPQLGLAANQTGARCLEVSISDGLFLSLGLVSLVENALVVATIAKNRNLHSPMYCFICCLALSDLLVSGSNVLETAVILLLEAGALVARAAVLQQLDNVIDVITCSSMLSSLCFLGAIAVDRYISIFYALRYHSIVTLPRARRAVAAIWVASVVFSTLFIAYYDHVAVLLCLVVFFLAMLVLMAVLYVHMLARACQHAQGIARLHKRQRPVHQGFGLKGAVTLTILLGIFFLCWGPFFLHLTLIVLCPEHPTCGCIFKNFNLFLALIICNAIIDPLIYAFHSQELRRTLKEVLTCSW

Melanocortin receptor 3 [3] = target: T3, Melanocortin receptor 3 (Homo sapiens, UniProt P41968); experiment: Agonist activity at human MC3R expressed in HEK293 cells assessed as induction of intracellular cAMP accumulation after 3 mins; assay type: functional, cell-based
T3 sequence (P41968 whole entry): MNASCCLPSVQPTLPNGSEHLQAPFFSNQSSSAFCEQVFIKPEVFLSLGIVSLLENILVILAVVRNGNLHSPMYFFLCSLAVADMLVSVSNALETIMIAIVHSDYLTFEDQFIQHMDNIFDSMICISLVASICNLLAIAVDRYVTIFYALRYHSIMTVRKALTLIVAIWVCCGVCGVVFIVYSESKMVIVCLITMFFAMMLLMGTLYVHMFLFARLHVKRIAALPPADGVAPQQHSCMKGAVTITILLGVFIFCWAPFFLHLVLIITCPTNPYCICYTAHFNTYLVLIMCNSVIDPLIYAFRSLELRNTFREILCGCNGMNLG

[4] = target: T2, Melanocyte-stimulating hormone receptor; experiment: Displacement of [125I]-NDP-alpha-MSH from human MC1R expressed in HEK293 cells after 40 mins by gamma counting method; assay type: cell-based
Target sequence in this assay (Q01726 whole entry): as the sequence (Q01726 whole entry) above

Melanocortin receptor 4 [5] = target: T1, Melanocortin receptor 4; experiment: Agonist activity at human MC4R expressed in HEK293 cells assessed as induction of intracellular cAMP accumulation after 3 mins; assay type: functional, cell-based
Melanocortin receptor 4 [6] = target: T1, Melanocortin receptor 4; experiment: Agonist activity at human MC4R expressed in HEK293 cells assessed as induction of intracellular cAMP accumulation at 10 uM after 3 mins relative to MT-2; assay type: functional, cell-based
Melanocortin receptor 5 [7] = target: T4, Melanocortin receptor 5 (Homo sapiens, UniProt P33032); experiment: Agonist activity at human MC5R expressed in HEK293 cells assessed as induction of intracellular cAMP accumulation after 3 mins; assay type: functional, cell-based
T4 sequence (P33032 whole entry): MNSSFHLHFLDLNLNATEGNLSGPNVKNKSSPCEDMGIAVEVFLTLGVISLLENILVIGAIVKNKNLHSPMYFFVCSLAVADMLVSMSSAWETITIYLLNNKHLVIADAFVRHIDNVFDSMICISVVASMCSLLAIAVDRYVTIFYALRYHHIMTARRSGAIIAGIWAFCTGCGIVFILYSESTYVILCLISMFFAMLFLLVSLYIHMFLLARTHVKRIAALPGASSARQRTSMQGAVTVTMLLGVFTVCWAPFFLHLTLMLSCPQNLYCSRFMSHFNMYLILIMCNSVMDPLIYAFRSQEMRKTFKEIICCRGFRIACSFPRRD

[8] = target: T2, Melanocyte-stimulating hormone receptor; experiment: Agonist activity at human MC1R expressed in HEK293 cells assessed as induction of intracellular cAMP accumulation at 10 uM measured after 3 mins relative to MT-2; assay type: functional, cell-based
Target sequence in this assay (Q01726 whole entry, looked up): as the sequence (Q01726 whole entry) above

Melanocortin receptor 3 [9] = target: T3, Melanocortin receptor 3; experiment: Displacement of [125I]-NDP-alpha-MSH from human MC3R expressed in HEK293 cells after 40 mins by gamma counting method; assay type: cell-based
Melanocortin receptor 3 [10] = target: T3, Melanocortin receptor 3; experiment: Agonist activity at human MC3R expressed in HEK293 cells assessed as induction of intracellular cAMP accumulation at 10 uM after 3 mins relative to MT-2; assay type: functional, cell-based
Melanocortin receptor 5 [11] = target: T4, Melanocortin receptor 5; experiment: Agonist activity at human MC5R expressed in HEK293 cells assessed as induction of intracellular cAMP accumulation at 10 uM after 3 mins relative to MT-2; assay type: functional, cell-based
Melanocortin receptor 5 [12] = target: T4, Melanocortin receptor 5; experiment: Displacement of [125I]-NDP-alpha-MSH from human MC5R expressed in HEK293 cells after 40 mins by gamma counting method; assay type: cell-based
Melanocortin receptor 5 [13] = target: T4, Melanocortin receptor 5; experiment: Displacement of [125I]-NDP-alpha-MSH from human MC5R expressed in HEK293 cells at 10 uM after 40 mins by gamma counting method; assay type: cell-based
Homo sapiens [14] = species: Homo sapiens; experiment: Selectivity ratio of IC50 for human MC1R to IC50 for human MC3R
Homo sapiens [15] = species: Homo sapiens; experiment: Selectivity ratio of IC50 for human MC5R to IC50 for human MC3R

Row | SMILES | IC50 (Melanocortin receptor 4 [1]) [nM] | EC50 [2] [nM] | EC50 (Melanocortin receptor 3 [3]; read-out: EC50) [nM] | IC50 [4] [nM] | EC50 (Melanocortin receptor 4 [5]; read-out: EC50) [nM] | max activation (Melanocortin receptor 4 [6]) [%] | EC50 (Melanocortin receptor 5 [7]; read-out: EC50) [nM] | max activation [8] [%] | IC50 (Melanocortin receptor 3 [9]) [nM] | max activation (Melanocortin receptor 3 [10]) [%] | max activation (Melanocortin receptor 5 [11]) [%] | IC50 (Melanocortin receptor 5 [12]) [nM] | EC50 (Melanocortin receptor 5 [7]; hek293) | Activity (Melanocortin receptor 5 [13]) | Ratio IC50 (Homo sapiens [14]) | Ratio IC50 (Homo sapiens [15]) | EC50 (Melanocortin receptor 3 [3]; hek293) | EC50 (Melanocortin receptor 4 [5]; hek293)
1 | N=C(N)NCCC[C@@H]1NC(=O)[C@@H](Cc2ccccc2)NC(=O)[C@H](Cc2c[nH]cn2)NC(=O)C2(CCCCC2)NC(=O)CC[C@@H](C(N)=O)NC(=O)[C@H](Cc2c[nH]c3ccccc23)NC1=O | > 1000 | 57 | 4.1 | 99 | 120 | 100 | 1.9 | 100 | 74 | 100 | 100 | 630 |  |  |  |  |  | 
2 | N=C(N)NCCC[C@@H]1NC(=O)[C@@H](Cc2ccccc2)NC(=O)[C@H](Cc2c[nH]cn2)NC(=O)C2(CCCC2)NC(=O)CC[C@@H](C(N)=O)NC(=O)[C@H](Cc2c[nH]c3ccccc23)NC1=O ([Ac5c]H[dF]RWE-NH2; lactam N-6) | > 1000 |  |  | 93 | 1000 | 100 |  | 100 | 59 | 100 | 0 |  | Not Active | inactive |  |  |  | 
3 | N=C(N)NCCC[C@@H]1NC(=O)[C@@H](Cc2ccc3ccccc3c2)NC(=O)[C@H](Cc2c[nH]cn2)NC(=O)C2(CCCC2)NC(=O)CC[C@@H](C(N)=O)NC(=O)[C@H](Cc2c[nH]c3ccccc23)NC1=O ([Ac5c]H[d2Nal]RWE-NH2; lactam N-6) | 100 | 108 |  | 43 | 130 | 74 |  | 100 |  | 82 | 0 | > 1000 | Not Active |  |  |  |  | 
4 | N=C(N)NCCC[C@@H]1NC(=O)[C@@H](Cc2ccc3ccccc3c2)NC(=O)[C@H](Cc2c[nH]cn2)NC(=O)C2(CCCCC2)NC(=O)C[C@@H](C(N)=O)NC(=O)[C@H](Cc2c[nH]c3ccccc23)NC1=O | 81 | 16 | 76 | 140 | 3.2 | 67 | 170 | 100 | 3.9 | 60 | 100 | > 1000 |  |  |  |  |  | 
5 | N=C(N)NCCC[C@@H]1NC(=O)[C@@H](Cc2ccccc2)NC(=O)[C@H](Cc2c[nH]cn2)NC(=O)C2(CCCCC2)NC(=O)C[C@@H](C(N)=O)NC(=O)[C@H](Cc2c[nH]c3ccccc23)NC1=O ([Ac6c]H[dF]RWD-NH2; lactam N-6) |  |  |  |  |  |  |  |  |  |  |  |  | Not Active |  |  |  |  | 
6 | CC1(C)NC(=O)CC[C@@H](C(N)=O)NC(=O)[C@H](Cc2c[nH]c3ccccc23)NC(=O)[C@H](CCCNC(=N)N)NC(=O)[C@@H](Cc2ccc3ccccc3c2)NC(=O)[C@H](Cc2c[nH]cn2)NC1=O ([Aib]H[d2Nal]RWE-NH2; lactam N-6) |  |  |  |  |  |  |  |  |  |  |  |  | Not Active |  |  |  |  | 
7 | N=C(N)NCCC[C@@H]1NC(=O)[C@@H](Cc2ccc3ccccc3c2)NC(=O)[C@H](Cc2c[nH]cn2)NC(=O)C2(CCC2)NC(=O)C[C@@H](C(N)=O)NC(=O)[C@H](Cc2c[nH]c3ccccc23)NC1=O | 320 | 48 | 3.2 | 112 | 270 | 70 | 560 | 100 | 5.1 | 50 | 100 | > 1000 |  |  |  |  |  | 
8 | N=C(N)NCCC[C@@H]1NC(=O)[C@@H](Cc2ccc3ccccc3c2)NC(=O)[C@H](Cc2c[nH]cn2)NC(=O)C2(CCCC2)NC(=O)C[C@@H](C(N)=O)NC(=O)[C@H](Cc2c[nH]c3ccccc23)NC1=O | 73 | 14 | 1.9 | 290 | 110 | 67 | 96 | 100 | 16 | 42 | 100 | 160 |  |  |  |  |  | 
9 | N=C(N)NCCC[C@@H]1NC(=O)[C@@H](Cc2ccccc2)NC(=O)[C@H](Cc2c[nH]cn2)NC(=O)C2(CCCC2)NC(=O)C[C@@H](C(N)=O)NC(=O)[C@H](Cc2c[nH]c3ccccc23)NC1=O ([Ac5c]H[dF]RWD-NH2; lactam N-6) |  |  |  |  |  |  |  |  |  |  |  |  | Not Active | inactive |  |  |  | 
10 | N=C(N)NCCC[C@@H]1NC(=O)[C@@H](Cc2ccccc2)NC(=O)[C@H](Cc2c[nH]cn2)NC(=O)C2(CCC2)NC(=O)CC[C@@H](C(N)=O)NC(=O)[C@H](Cc2c[nH]c3ccccc23)NC1=O ([Ac4c]H[dF]RWE-NH2; lactam N-6) | > 1000 | 25 |  | 55 | 150 | 75 | 2 | 100 | 55 | 100 | 100 | 380 |  |  | 7 | 1 |  | 
11 | N=C(N)NCCC[C@@H]1NC(=O)[C@@H](Cc2ccc3ccccc3c2)NC(=O)[C@H](Cc2c[nH]cn2)NC(=O)C2(CCCCC2)NC(=O)CC[C@@H](C(N)=O)NC(=O)[C@H](Cc2c[nH]c3ccccc23)NC1=O ([Ac6c]H[d2Nal]RWE-NH2; lactam N-6) |  |  |  |  |  |  |  |  |  |  |  |  | Not Active |  |  |  | Not Active | Not Active
12 | CC1(C)NC(=O)C[C@@H](C(N)=O)NC(=O)[C@H](Cc2c[nH]c3ccccc23)NC(=O)[C@H](CCCNC(=N)N)NC(=O)[C@@H](Cc2ccc3ccccc3c2)NC(=O)[C@H](Cc2c[nH]cn2)NC1=O ([Aib]H[d2Nal]RWD-NH2; lactam N-6) | 44 | 67 | 73 | 180 | 6.7 | 100 | 18 | 100 |  | 83 | 24 | 165 |  |  |  |  |  | 
13 | N=C(N)NCCC[C@@H]1NC(=O)[C@@H](Cc2ccccc2)NC(=O)[C@H](Cc2c[nH]cn2)NC(=O)C2(CCC2)NC(=O)C[C@@H](C(N)=O)NC(=O)[C@H](Cc2c[nH]c3ccccc23)NC1=O | > 1000 | 60 | 276 | > 1000 | 720 | 43 |  | 100 | > 1000 | 100 | 0 | > 1000 | Not Active |  |  |  |  | 
14 | CC1(C)NC(=O)C[C@@H](C(N)=O)NC(=O)[C@H](Cc2c[nH]c3ccccc23)NC(=O)[C@H](CCCNC(=N)N)NC(=O)[C@@H](Cc2ccccc2)NC(=O)[C@H](Cc2c[nH]cn2)NC1=O ([Aib]H[dF]RWD-NH2; lactam N-6) | 5.2 | 87 | 76 | 601 | 6.7 | 100 | 140 | 100 |  | 100 | 100 | > 1000 |  |  |  |  |  | 
15 | N=C(N)NCCC[C@@H]1NC(=O)[C@@H](Cc2ccc3ccccc3c2)NC(=O)[C@H](Cc2c[nH]cn2)NC(=O)C2(CCC2)NC(=O)CC[C@@H](C(N)=O)NC(=O)[C@H](Cc2c[nH]c3ccccc23)NC1=O ([Ac4c]H[d2Nal]RWE-NH2; lactam N-6) |  |  |  |  |  |  |  |  |  |  |  |  | Not Active |  |  |  | Not Active | Not Active
